For orientation: Ki means a measure of affinity in units of concentration, obtained from inhibition or displacement. Low readings indicate tighter binding, high ones weaker binding.

Experiment [1] concerns the target Neuronal acetylcholine receptor subunit alpha-7 (Rattus norvegicus, UniProt Q05941).
Experiment [2] deals with Neuronal acetylcholine receptor subunit alpha-4 (Rattus norvegicus, UniProt P09483).
Chain of Neuronal acetylcholine receptor subunit alpha-4 (P09483 whole entry): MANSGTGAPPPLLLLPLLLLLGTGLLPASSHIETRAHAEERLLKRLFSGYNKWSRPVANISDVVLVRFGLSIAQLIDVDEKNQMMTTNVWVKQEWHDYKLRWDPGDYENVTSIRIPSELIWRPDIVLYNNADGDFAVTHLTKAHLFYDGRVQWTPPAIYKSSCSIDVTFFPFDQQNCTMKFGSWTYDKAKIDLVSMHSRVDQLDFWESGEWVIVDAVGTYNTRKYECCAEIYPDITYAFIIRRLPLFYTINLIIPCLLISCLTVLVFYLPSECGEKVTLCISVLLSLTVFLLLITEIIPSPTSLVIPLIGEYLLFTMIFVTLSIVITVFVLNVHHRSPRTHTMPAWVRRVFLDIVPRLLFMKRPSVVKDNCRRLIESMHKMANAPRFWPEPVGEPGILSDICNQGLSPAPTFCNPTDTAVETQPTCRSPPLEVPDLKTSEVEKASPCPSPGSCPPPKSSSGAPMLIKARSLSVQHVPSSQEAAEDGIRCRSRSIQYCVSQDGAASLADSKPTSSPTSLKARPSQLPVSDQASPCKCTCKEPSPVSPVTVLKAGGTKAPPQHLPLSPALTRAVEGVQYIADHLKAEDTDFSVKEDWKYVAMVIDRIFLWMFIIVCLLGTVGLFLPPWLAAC

Chain of Neuronal acetylcholine receptor subunit alpha-7 (Q05941 whole entry): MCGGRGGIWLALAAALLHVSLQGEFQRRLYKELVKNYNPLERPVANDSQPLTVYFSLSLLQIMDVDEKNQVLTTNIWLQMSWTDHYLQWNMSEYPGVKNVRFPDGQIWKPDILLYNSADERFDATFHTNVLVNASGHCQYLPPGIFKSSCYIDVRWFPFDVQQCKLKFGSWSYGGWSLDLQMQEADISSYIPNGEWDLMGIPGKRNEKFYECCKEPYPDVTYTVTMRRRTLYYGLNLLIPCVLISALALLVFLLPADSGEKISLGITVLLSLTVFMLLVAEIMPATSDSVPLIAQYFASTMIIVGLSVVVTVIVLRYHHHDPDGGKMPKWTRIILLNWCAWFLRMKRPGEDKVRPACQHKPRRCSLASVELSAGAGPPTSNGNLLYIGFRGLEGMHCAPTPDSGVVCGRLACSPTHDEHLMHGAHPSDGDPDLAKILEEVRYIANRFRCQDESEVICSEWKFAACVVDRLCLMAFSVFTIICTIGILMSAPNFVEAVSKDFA

As for `COc1ccc(C=C2CCCN=C2c2cccnc2)c(OC)c1` [CAS_156223-05-1], the Ki in experiment [1] was 596 nM; in experiment [2], 278 nM.

`c1cncc(C2CC3CCN2CC3)c1` (stereo not drawn) [TC-2429]: the Ki in experiment [1] was determined as 12.4 nM; in experiment [2] it was 1 nM.

As to `C[N+](C)(C)CCOC(N)=O` [(2-Hydroxyethyl)trimethyl ammonium chloride carbamate], the values for the Ki in experiment [1] and in experiment [2] were 9920 nM and 66.4 nM, respectively.

For the compound `COC1CC=C2CCN3CCC4=C(CC(=O)OC4)C23C1` (stereo not drawn) [NSC_31762], the Ki in experiment [1] came out at 7700 nM; in experiment [2], 24.6 nM.

The compound `c1cncc(OCC2CCN2)c1` (stereo not drawn) [A-85380] had a Ki in experiment [1] of 54.9 nM.

On to `C#Cc1cncc(C2CCCN2C)c1` (stereo not drawn) [NSC_6442277], for which the Ki in experiment [1] was found to be 14400 nM; in experiment [2], 0.5 nM.

For the compound `O=c1cccc2n1CC1CNCC2C1` (stereo not drawn) [CAS_485-35-8], the Ki is 1140 nM in experiment [1] and 0.2 nM in experiment [2].

With `Cc1cc(C2CCCN2C)on1` (stereo not drawn) [ABT-418], the Ki in experiment [1] turned out to be 1970 nM; in experiment [2] it was 4.69 nM.

Consider `CCN1CC2(COC(=O)c3ccccc3-n3c(O)cc(C)c3O)CCC(OC)C34C5CC6C(OC)CC(O)(C5C6OC)C(O)(C(OC)C23)C14` (stereo not drawn) [CAS_21019-30-7], for which the Ki in experiment [2] came out at 585 nM.

For the compound `CNC(=O)OCC[N+](C)(C)C` [CAS_14721-69-8], the Ki is 4350 nM in experiment [1] and 2.51 nM in experiment [2].
